Experiments:
[1] = tested on: BMSC (primary human bone marrow mesenchymal stromal cells); experiment: absolute EC50 for viability; higher = less sensitive
[2] = tested on: BMSC (primary human bone marrow mesenchymal stromal cells); experiment: drug sensitivity score (DSS); higher = more sensitive

SMILES | absolute EC50 for viability [1] | drug sensitivity score [2]
Cc1[nH]nc(C(F)(F)F)c1Cc1sc2c(c1C(=O)N1C[C@](C)(O)CO1)c(=O)n(C)c(=O)n2C(C)C [AZD3965] | > 1 µM | 0
O=C(CCCCCCC(=O)Nc1ccc([C@H]2O[C@@H](CSc3nc(-c4ccccc4)c(-c4ccccc4)o3)C[C@@H](c3ccc(CO)cc3)O2)cc1)NO [Tubacin] | > 10 µM | 0
S=c1[nH]cnc2nc[nH]c12 [Mercaptopurine] | > 10 µM | 11.1
CC(C)(C)c1cc(NC(=O)Nc2ccc(Oc3ccnc4[nH]c(=O)cnc34)cc2F)n(-c2ccccc2)n1 | > 25 µM | 0
C=CC(=O)Nc1cccc(Nc2nc(Nc3ccc(OCCOC)cc3)ncc2F)c1 [Spebrutinib] | > 1 µM | 1.2
CN(C)C/C=C/C(=O)Nc1cc2c(Nc3ccc(F)c(Cl)c3)ncnc2cc1O[C@H]1CCOC1 [Afatinib] | > 1 µM | 2.9
O=C(O)CC1CC(c2ccccc2)=NO1 (stereo not drawn) [VGX-1027] | > 10 µM | -0.1
Cn1cncc1[C@@](N)(c1ccc(Cl)cc1)c1ccc2c(c1)c(-c1cccc(Cl)c1)cc(=O)n2C [Tipifarnib] | > 10 µM | 4.4
CC1(C)NC(=O)N(c2ccc([N+](=O)[O-])c(C(F)(F)F)c2)C1=O [Nilutamide] | > 10 µM | 0
C=CC(=O)N1CCC[C@@H](n2nc(-c3ccc(Oc4ccccc4)cc3)c3c(N)ncnc32)C1 [Ibrutinib] | > 1 µM | 0
COc1ccc(CCc2nc3cc(-c4c(C)noc4C)ccc3n2C[C@H](C)N2CCOCC2)cc1Cl [SGC-CBP30] | > 25 µM | 2.1
C[C@@H]1CN(Cc2ccc(F)cc2)[C@@H](C)CN1C(=O)c1cc2c(C(=O)C(=O)N(C)C)cn(C)c2cc1Cl [Talmapimod] | > 10 µM | 0
O=C(c1cccc(Cl)c1F)N1CCN(Cc2cccc(Nc3nccs3)n2)CC1 [MK-8745] | > 10 µM | 1.3
CCCc1cc(C)[nH]c(=O)c1CNC(=O)c1cc(-c2ccnc(N3CCN(C)CC3)c2)cc2c1cnn2C(C)C [GSK343] | > 1 µM | 0
COc1ccc(-c2ccc3c(N4CCOC[C@@H]4C)nc(N4CCOC[C@@H]4C)nc3n2)cc1CO [AZD8055] | 0.207 µM | 17.8
Nc1ncnc2c1c(-c1cccc(OCc3ccccc3)c1)cn2C1CC(CN2CCC2)C1 (stereo not drawn) [NVP-AEW541] | 6.04 µM | 4.5
CC1(C)CNc2cc(NC(=O)c3cccnc3NCc3ccncc3)ccc21 [Motesanib] | > 10 µM | 0
C[C@@H]1COC(Nc2ccc3ncnc(Nc4ccc(OCc5nccs5)c(Cl)c4)c3c2)=N1 [Varlitinib] | > 10 µM | 0.4
Cc1nc(=O)c2cc(CN(C)c3ccc(C(=O)N[C@@H](CCC(=O)O)C(=O)O)s3)ccc2[nH]1 [Raltitrexed] | > 1 µM | 0
O=C(Nc1cc(Cl)cc2c1[nH]c1cnccc12)c1cccnc1 [PS-1145] | > 25 µM | 0
NC(=O)Nc1cc(-c2cccc(F)c2)sc1C(=O)N[C@H]1CCCNC1 [AZD7762] | > 1 µM | 7.2
Cc1ccc(-n2nc(C(C)(C)C)cc2NC(=O)Nc2ccc(OCCN3CCOCC3)c3ccccc23)cc1 [Doramapimod] | > 10 µM | 1
NC(=O)c1cccc(-c2cccc(OC(=O)NC3CCCCC3)c2)c1 [URB597] | > 1 µM | 0
N#Cc1ccc2[nH]c(O)c(-c3ccc(CN4CCOCC4)cn3)c2c1 [AZD-1080] | > 10 µM | 0
